Experimental data published in patent EP3290040A1, “PROPHYLACTIC AND THERAPEUTIC AGENT FOR COMPLICATIONS AFTER CATARACT SURGERY” (Honjo, Megumi, priority 2015, dated 2016).

Experiments:
Format in all cases: cell-based
Human normal fibroblasts = assay: Fibroblast proliferation, BrdU incorporation (Cell Proliferation ELISA BrdU kit); settings: cultured 2 days, no added Ripasudil = 100%
Description: Human normal fibroblasts (Sanko Junyaku Co., Ltd.) were seeded at 2000 cells/well and cultured overnight. Next day, the medium (FGM-2 (Sanko Junyaku Co., Ltd.)) was exchanged (150 µL) and then Ripasudil was added in a volume of 10 µL to make final concentrations of 0.1 µM, 1.0 µM, and 10.0 µM. […] Fixation and antibody addition, washing and color development, and reaction stopping were performed according to the protocol of the Cell Proliferation ELISA BrdU kit (Roche). Then, a plate reader was used to measure OD540-620 to evaluate the action of Ripasudil on fibroblast proliferation. […]

[1] = tested on: Human lens epithelial cells (SRA 01/04); assay: Cell proliferation (DNA synthesis ability) of lens epithelial cells, BrdU incorporation ELISA; settings: SRA 01/04 cells, 24 hours, FIG. 1
Description: Human lens epithelial cells (SRA 01/04 (RIKEN Cell Bank)) were cultured using 20% FBS-DMEM medium under conditions at 37°C and 5% CO2. The concentration of SRA 01/04 cells was adjusted using 2% FBS-DMEM medium, and the cells were seeded in a 96-well plate at 100 µL/well (5000 cells/well) and incubated for 24 hours under conditions at 37°C and 5% CO2. The medium was exchanged to 5% FBS-DMEM medium, to which TGFβ was added at 10 ng/mL (final concentration) or Ripasudil at 10, 30, or 100 µM (final concentration), and then the cells were cultured for another 24 hours. The cell proliferation ELISA, BrdU (colorimetric) kit (Roche) was used to measure the amount of intracellular 5-bromo-2'-deoxyuridine (BrdU) incorporation at a measurement wavelength of 450 nm with Multiskan MS version 8.0 (LABSYSTEMS), thereby to evaluate the effect on the cell proliferation of SRA 01/04 cells.

HT-1080 cell = assay: Inhibitory action on collagen gel contraction (cell-containing collagen gel); parameters: key: When a contraction level was almost equal to that of a group to which Ripasudil was not added, (+) was used; (++) was used in the case where contraction was inhibited; (+++) was used in the case where contraction was significantly inhibited; settings: HT1080 collagen gel, observed after two or three days
Description: HT-1080 cell suspension adjusted to a density of 150,000 to 200,000 cells/mL with a medium (medium: E'MEM (Sigma)/10% FBS/NEAA/PCSM), and a solution, obtained by mixing A, B and C solutions (A solution: Cellmatrix (Collagen Type I 3 mg/mL), B solution: concentrated culture medium, 10 x MEM Hank's culture medium, and C solution: buffer for reconstitution) of collagen gel culture kit (Nitta Gelatin Inc.) mixed at a ratio of 8 : 1 : 1 and cooling the obtained mixture, were mixed at a ratio of 1.4 : 1, and the obtained mixture was seeded in a 48 Well Plate at 500 µL/well and gelatinized in a CO2 incubator to produce a cell-containing collagen gel. After gelation, 1 mL of the medium in which Ripasudil was adjusted to 0.1 µM, 1.0 µM or 10.0 µM was added on the gel, and an injection needle was inserted between the gel and the wall surface to release the gel from the wall surface, and the gel was incubated to stand in a CO2 incubator. After two or three days, the contraction of the gel was observed, and photos were taken to evaluate the actions of Ripasudil.

SMILES: C[C@H]1CNCCCN1S(=O)(=O)c1cccc2cncc(F)c12 [Ripasudil, 4-fluoro-5-{[(2S)-2-methyl-1,4-diazepan-1-yl]sulfonyl}isoqu inoline]
- BrdU incorporation (% of control) (Human normal fibroblasts; Ripasudil 0.1 µM): 80.0 % of control
- BrdU incorporation (% of control) (Human normal fibroblasts; Ripasudil 1.0 µM): 59.3 % of control
- BrdU incorporation (% of control) (Human normal fibroblasts; Ripasudil 10.0 µM): 10.9 % of control
- DNA synthesis of human lens epithelial cells ([1]; Ripasudil 30 µM): statistically significant decrease
- DNA synthesis of human lens epithelial cells ([1]; Ripasudil 10, 30 or 100 µM): dose-dependent inhibitory action
- Inhibition of contraction (HT-1080 cell; Ripasudil 0.1 µM): +
- Inhibition of contraction (HT-1080 cell; Ripasudil 1.0 µM): ++
- Inhibition of contraction (HT-1080 cell; Ripasudil 10.0 µM): +++
